US10588972B2, “Phthalocyanine probes and uses thereof” (LI-COR, INC., priority 2014, dated 2020)
“And” between values parts separate entries of the source, which are not always exact repeats. Equal entries are not always repeated. Where two headings read alike, the source gives them in different places.

How the values were obtained:
A431 cells [1] = format: cell-based; conditions: 32 J/cm^2
Protocol: A different LED source was tested and evaluated to determine if a second source of LED would yield a similar effect as the standard LED used. A straight forward evaluation was set up with four treatments (treatments A-D). The tests were performed in triplicate in order to examine reproducibility. The test included the following four treatments: treatment A of no probe and irradiation, treatment B of IRdye® 700DX-labeled EGF and no irradiation, treatment C of IRDye® 700DX-labeled EGF and irradiation, and treatment D of IRDye® 700DX-labeled panitumumab and irradiation. The probe dose was about 0.1 μM labeled panitumumab and 0.5 μM 700DX-labeled EGF. Irradiation was for 10 minutes at an irradiation dose of 32 J/cm^2.
Significant and similar effects for both probes together and in triplicate thus providing clear evidence that IRDye® 700DX-labeled small protein can kill cells similarly to an IRDye 700DX-labeled antibody. Conditions for use of either probe may be unique to the individual probe. […] The fluorescent scale of the 700 nm images was the same for both treated sets of cells (FIGS. 12C-12D). Although the exact concentration of the antibody probe is not known, the signals from the different probes appear similar in level and intensity.

A431 cells [2] = experiment: Cytotoxicity and localization of antibody probe versus small protein ligand probe after irradiation (Example 4); format: cell-based
Protocol: Both probes can bind EGFR and had approximately 2 dye molecule per conjugate molecule. It was assumed that the affinity for the receptor will be different for the antibody (generally pM), compared to the small protein (nM). Although the probe doses were different, the incubation times were the same at only 10 min. After incubation, the probes were rinsed from the cells. FIGS. 7A and 7B illustrates A431 cells that were incubated with IRDye 700DX-panitumumab or IRDye 700DX-EGF, respectively and thereafter irradiated.
Thus, upon irradiation, the production of singlet oxygen occurred at the cell surface. Typically, the EGF ligand is internalized after binding the EGF receptor.

A431 cells [3] = experiment: VB-48 assay: vitality, viability and necrosis of treatments 1-10 (Table 3); format: cell-based
Protocol: Briefly, A431 cells were labeled with respective probes for specific treatments (listed below); cells were rinsed and evaluated for labeling. The test include the following treatments: […], treatments 3-4 of EGF-IRDye® 700DX at 0.5 μM and radiation, treatments 5-6 of IRDye® 700DX NHSe at 5 μM and radiation, treatments 7-8 of panitumumab-IRDye® 700DX at about 0.1 μM and radiation, treatment 9 of a negative control with no probe and no irradiation, and treatment 10 of RGD-IRDye® 700DX and no irradiation. The probes were incubated for about 10 minutes and with a longer period of about 20 minutes for the RGD probe. The cells were monitored with microscopy and morphology was examination 24 hours post treatment.
Low binding was expected for the RGD probe due to the low level of integrin receptors on A431 cells. […] By 3 hours post-irradiation all treatments except RGD (Treatment 1) show significant cytotoxicity. Vitality, viability and necrosis assays such as a VB-48 assay and JC-1 assay were performed.

A431 cells [4] = experiment: Unlabeled versus IRDye 700DX-labeled panitumumab with and without irradiation (Example 5); format: cell-based; conditions: 10 minutes incubation
Protocol: Although the assumption is that the doses used in the assay described herein are too low to be a contributing factor in the cell death seen with IRDye® 700DX-labeled panitumumab, a small study was conducted to confirm that no therapeutic effect is due to the assay system. The test included the following four treatments: treatment 1 of unlabeled panitumumab and no irradiation (FIG. 11A), treatment 2 of IRDye® 700DX-labeled panitumumab and no irradiation (FIG. 11B), treatment 3 of unlabeled panitumumab and irradiation (FIG. 11C), and treatment 4 of IRDye® 700DX-labeled panitumumab and irradiation (FIG. 11D). The irradiation dose was 24 J/cm^2 with the probe incubation of 10 minutes and a concentration of 0.1 μM.

[5] = Production of singlet oxygen, Singlet Oxygen Green Sensor, steady state fluorometer; conditions: for singlet oxygen sensor fluorescence with scavenger sodium azide added: 32 J/cm^2
Protocol: Dyes and conjugated probes (IRDye 700DX carboxylate (700DX), EGF, RGD, and IgG conjugates) were evaluated for production of singlet oxygen using Singlet Oxygen Green Sensor (Life Technologies) and measured by a steady state fluorometer (ex 504 nm/em 525 nm). Controls (water or DMEM medium) and a positive control of methylene blue (MB) were included.
Measurements were made every second for 30 sec and averaged. Solution makeup: SOGS (1 μM), dye or probe addition (10 μM), Tris pH 7.5 ([…]) and deuterium oxide (50%). Light exposure=32 J/cm^2.

[6] = system: serum proteins including albumin (human serum albumin, bovine serum albumin, 5% FBS); experiment: Binding of dye to serum proteins, incubation in 1×PBS and 4-12% Bis-Tris gel
Protocol: In SDS-PAGE and under non-reducing conditions, ovalbumin has a molecular weight of about 40 kDa, 45 kDa, 63 kDa and 72 kDa. Human serum albumin (HSA) has a molecular with ranging from about 66.6 kDa to about 66.4 kDa or lower under non-reducing conditions. HSA can migrate as an approximately 58-67 kDa band in SDS-PAGE under reducing conditions.
Human serum albumin, bovine serum albumin, 5% FBS and IRDye® 700DX carboxylate were incubated in 1×PBS for 2.5 h at room temperature. Methylene blue was also used as a dye known to bind to albumin and the other serum proteins. The samples were run on a 4-12% Bis-Tris gel. Ovalbumin served as the negative control. The proteins incubated with IRDye® 700DX carboxylate are on the left of the gel and methylene blue samples are on the right (FIG. 4A-B).

[7] = Clearance and biodistribution of IRDye 700DX carboxylate by fluorescence imaging; format: in vivo, nude mice
Protocol: Experiments were performed to evaluate the clearance of IRDye® 700DX carboxylate in nude mice receiving 2 or 4 nmoles of the compound. This is the non-reactive form of the dye and the in vivo elimination kinetics can be used to determine the biodistribution of the dye and a subsequent dye-labeled conjugate. The results for both doses were very similar (only 4 nmole animal images are presented). Clearance appeared to be renal as noted in the dorsal (FIG. 8A) and ventral whole body views (FIG. 9A). The kidneys are visible throughout the dorsal series (FIG. 8A) and liver negligible in ventral series (FIG. 9A). […] A closer examination of the organs after excision is illustrated in FIG. 10B (2 nmole dose). […] All organs imaged (muscle, heart, lungs, liver, brain, spleen, intestine, and kidneys) were analyzed for signal corrected for area.

[8] = Stability of IRDye 700DX carboxylate (signal intensity) in PBS and in buffers of pH 2.1-8.2; format: physicochemical; conditions: 37° C.
Protocol: Evaluation of the effect of pH on the stability of the carboxylate form of the dye was performed at room temperature and at 37° C. For comparison purposes a test of the stability at 37° C. while dissolved in 1×PBS was included. Mcllaine's buffer solution with constant ionic strength was used. […] When the dye was dissolved in various buffers with increasing pH (2.1-8.2) a loss in signal intensity initially occurred between pH 4 and 5 with losses progressively increasing down to pH 2.1 at room temperature (FIG. 3A). At 37° C. this loss initially occurred at a slightly higher pH between pH 5-6 with a progression similar to the tests done at room temperature (FIG. 3B).

[9] = irradiated (I) 10 minutes, 700DX-EGF 0.5 μM, 700DX-Pan about 0.1 μM
[10] = irradiated (I) 32 J/cm^2, RGD 0.5 μM, EGF 0.5 μM, NHSe 5 μM, Pan ~0.1 μM
[11] = irradiation 24 J/cm^2, 0.1 μM, 24 hours post-treatment
[12] = no irradiation, 0.1 μM, 24 hours
[13] = 2.5 h incubation, room temperature

700DX-Pan [reference compound]
effect on cells (morphology) (A431 cells [1]; irradiated 10 minutes): severely affected by the irradiating energy and were dying | Cells/mL (A431 cells [1]; [9]): 2.8 × 10^5 Cells/mL and 4.2 × 10^5 Cells/mL and 2.3 × 10^5 Cells/mL | VB-48 % necrotic (A431 cells [1]; [9]): 67% and 87% | dead irradiated cells (A431 cells [2]; 10 min incubation, panitumumab probe about 0.1 μM, EGF probe 0.5 μM, 24 hours post irradiation): 62% | necrotic cells after irradiation (A431 cells [2]; irradiation 24 J/cm^2 (figure legend)): 62% | % Healthy (A431 cells [3]; [10]): 15.0% | % Necrotic (A431 cells [3]; [10]): 70% | Cells/mL (A431 cells [3]; [10]): 1.2 × 10^5 Cells/mL | Est % Viability (A431 cells [3]; [10]): 30-40% | Low % Vitality (A431 cells [3]; [10]): 15% | cytotoxicity by microscopy (A431 cells [3]; irradiated, up to 3 hours post-irradiation): most effective | induction of cell death (morphology) (A431 cells [4]; [11]): effectively induced cell death | induction of cell death (morphology) (A431 cells [4]; [12]): No measurable effect

CN(C)c1ccc2nc3ccc(=[N+](C)C)cc-3sc2c1 [methylene blue]
increase of singlet oxygen sensor fluorescence ([5]; dye or probe 10 μM, SOGS 1 μM, light exposure 32 J/cm^2 (690 nm)): Three- to four-fold | singlet oxygen sensor fluorescence with scavenger sodium azide added [5]: reduction in fluorescence | binding to the serum proteins including albumin [6, 13]: Signal is present

silicate(5-), bis[N— [3-[(hydroxy-.kappa.O)dimethylsilyl]propyl]-3-sulfo-N,N-bis(3-sulfopropyl)-1-propanaminiumato(4-)][6-[[[3-[(29H,31H-phthalocyanin-yl-.kappa.N29, .kappa.N30, .kappa.N31, .kappa.N32)oxy]propoxy]carbonyl]amino]hexanoato(3-)]-, sodium (1:5) [IRDye® 700DX carboxylate]
primary location of the dye in the kidney (longitudinal slice) ([7]; 4 nmole dose): proximal tubules of the renal cortex | signal in organs other than the liver and kidney ([7]; 24 hours after injection): little to no signal | retention in the liver ([7]; nude mice, 2 or 4 nmoles): no significant retention in the liver | route of clearance ([7]; nude mice, 2 or 4 nmoles, 5 minutes to 24 hours): renal | loss of signal intensity (stability) ([8]; 1×PBS, 1 μM): very little loss of signal intensity | pH at which a loss in signal intensity initially occurred ([8]; buffers of increasing pH): 5-6 pH | singlet oxygen sensor fluorescence with scavenger sodium azide added [5]: reduction in fluorescence | binding to the serum proteins including albumin ([6]; 1 h post-incubation): not detected | binding to the serum proteins including albumin [6, 13]: evident

unlabeled panitumumab: unlabeled antibody that binds EGFR
induction of cell death (morphology) (A431 cells [4]; [11]): No measurable effect | induction of cell death (morphology) (A431 cells [4]; [12]): No measurable effect
